From patent US7795228B2, “Spiroheterocyclic glycosides and methods of use” (Theracos, Inc., priority 2006, dated 2010) come the findings set out here.

One test has as its target T1, human SGLT1 (Homo sapiens, UniProt P13866).
T1 construct: Full-length human SGLT1 cDNA on pDream2.1 expression vector was obtained from GenScript Corporation; host or cells: COS-7 cells
T1 sequence (P13866 1-664): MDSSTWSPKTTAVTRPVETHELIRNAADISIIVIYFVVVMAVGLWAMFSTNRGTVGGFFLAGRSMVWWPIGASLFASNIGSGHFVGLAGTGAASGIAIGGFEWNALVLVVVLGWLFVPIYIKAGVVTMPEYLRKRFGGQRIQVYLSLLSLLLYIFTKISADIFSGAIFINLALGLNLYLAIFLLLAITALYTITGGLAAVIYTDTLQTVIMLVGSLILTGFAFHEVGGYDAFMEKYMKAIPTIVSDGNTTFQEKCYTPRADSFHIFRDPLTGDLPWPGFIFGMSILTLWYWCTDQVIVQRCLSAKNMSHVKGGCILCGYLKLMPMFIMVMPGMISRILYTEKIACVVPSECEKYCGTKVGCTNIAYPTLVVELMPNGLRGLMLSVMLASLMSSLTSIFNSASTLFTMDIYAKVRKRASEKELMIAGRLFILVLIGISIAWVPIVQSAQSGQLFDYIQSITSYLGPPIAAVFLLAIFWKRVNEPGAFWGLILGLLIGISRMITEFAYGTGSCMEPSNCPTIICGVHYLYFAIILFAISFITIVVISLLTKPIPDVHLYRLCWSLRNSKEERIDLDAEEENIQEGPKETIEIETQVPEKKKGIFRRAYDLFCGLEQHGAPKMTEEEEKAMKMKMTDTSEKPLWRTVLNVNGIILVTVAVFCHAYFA
The test is described as follows: Methyl-α-D-[U-14C]glucopyranoside uptake assay, human SGLT1 expressing cells. The class given is cell-based. Conditions: COS-7 cells expressing human SGLT1, 2 h incubation. The protocol: Full-length human SGLT1 cDNA on pDream2.1 expression vector was obtained from GenScript Corporation and propagated in Escherichia coli strain DH5α using Luria-Bertani (LB) medium containing ampicillin. Plasmid DNA was isolated using the QIAGEN Plasmid Midi Kit (QIAGEN Inc.). […] Transfected cells were stored in DMEM containing 10% dimethyl sulfoxide (DMSO) at −80° C.
(§1) Cells expressing SGLT1 or SGLT2 were seeded on 96-well ScintiPlate scintillating plates (PerkinElmer, Inc.) in DMEM containing 10% FBS (1×10^5 cells per well in 100 μl medium) incubated at 37° C. under 5% CO2 for 48 h prior to the assay. Cells were washed twice with 150 μl of either sodium buffer (137 mM NaCl, 5.4 mM KCl, 2.8 mM CaCl2, 1.2 mM MgCl2, 10 mM tris(hydroxymethyl)aminomethane/N-2-hydroxyethylpiperazine-N′-ethanesulfonic acid [Tris/Hepes], pH 7.2) or sodium-free buffer (137 mM N-methyl-glucamine, 5.4 mM KCl, 2.8 mM CaCl2, 1.2 mM MgCl2, 10 mM Tris/Hepes, pH 7.2). Test compound in 50 μl each of sodium or sodium-free buffer containing 40 μCi/ml methyl-α-D-[U-^14C] glucopyranoside (Amersham Biosciences/GE Healthcare), either with (symbols in parentheses) or without (symbols without parentheses) 25% human serum, was added per well of a 96-well plate and incubated at 37° C. with shaking for either 2 h (SGLT1 assay) or 1.5 h (SGLT2 assay). Cells were washed twice with 150 μl of wash buffer (137 mM N-methylglucamine, 10 mM Tris/Hepes, pH 7.2) and methyl-α-D-[U-^14C]glucopyranoside uptake was quantitated using a TopCount scintillation counter (PerkinElmer, Inc.). Sodium-dependent glucopyranoside uptake was measured by subtracting the values obtained with sodium-free buffer from those obtained using sodium buffer (average of triplicate determinations).

In the next test the target is T2, human SGLT2 (Homo sapiens, UniProt P31639).
T2 construct: A full-length cDNA clone expressing human SGLT2 (GenScript Corporation)
T2 sequence (P31639 1-672): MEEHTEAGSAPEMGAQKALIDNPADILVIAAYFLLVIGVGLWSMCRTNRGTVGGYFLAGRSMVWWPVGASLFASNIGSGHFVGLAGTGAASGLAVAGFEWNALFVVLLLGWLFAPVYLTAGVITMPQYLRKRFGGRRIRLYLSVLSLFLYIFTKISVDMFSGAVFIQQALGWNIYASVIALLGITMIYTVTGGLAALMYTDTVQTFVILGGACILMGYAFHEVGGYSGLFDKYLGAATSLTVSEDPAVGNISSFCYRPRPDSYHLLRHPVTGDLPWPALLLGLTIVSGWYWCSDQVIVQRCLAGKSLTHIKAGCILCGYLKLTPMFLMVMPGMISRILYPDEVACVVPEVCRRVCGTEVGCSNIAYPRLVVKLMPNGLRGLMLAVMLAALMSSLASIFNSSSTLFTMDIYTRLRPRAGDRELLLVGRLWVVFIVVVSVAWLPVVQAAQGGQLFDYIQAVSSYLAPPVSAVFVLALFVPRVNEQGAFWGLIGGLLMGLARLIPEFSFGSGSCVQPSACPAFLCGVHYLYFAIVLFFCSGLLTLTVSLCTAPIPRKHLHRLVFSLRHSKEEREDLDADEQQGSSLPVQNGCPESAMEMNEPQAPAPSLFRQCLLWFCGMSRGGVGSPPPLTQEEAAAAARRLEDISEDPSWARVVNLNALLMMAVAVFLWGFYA
As to the kind of experiment: Methyl-α-D-[U-14C]glucopyranoside uptake assay, cells stably expressing human SGLT2. The following applies: HEK293.ETN cells expressing human SGLT2, 1.5 h incubation. It is filed as cell-based.
Source text: A full-length cDNA clone expressing human SGLT2 (GenScript Corporation) was subcloned into Hind III and Not I sites of pEAK15 expression vector. Clones harboring the cDNA inserts were identified by restriction analysis.
Plasmid containing human SGLT2 was linearized with Nsi I and purified by agarose gel electrophoresis. Using Lipofectamine 2000 Transfection Reagent (Invitrogen Corporation), DNA was transfected into HEK293.ETN cells and cultured in Dulbecco's Modified Eagle Medium (DMEM) containing 10% fetal bovine serum (FBS) at 37° C. under 5% CO2 for 24 h. Transfectants were selected in the same growth medium supplemented with puromycin (Invitrogen Corporation) for two weeks. Puromycin-resistant cells were recovered and seeded on a fresh 96-well plate (single cell per well) and cultured in the presence of puromycin until cells became confluent. Puromycin-resistant clones were evaluated for SGLT2 activity in the methyl-α-D-[U-^14C]glucopyranoside uptake assay described below.
as §1

[1] abbreviates: with 25% human serum (symbols in parentheses).
The mark [2] stands for this setting: without human serum (symbols without parentheses).

Regarding `CCc1ccc(Cc2cc3c(cc2Cl)OC(C)C[C@]32O[C@H](CO)[C@@H](O)[C@H](O)[C@H]2O)cc1` (stereo partly drawn) [Compound 47, (2′S,3′R,4′S,5′S,6′R)-7-chloro-6-(4-ethylbenzyl)-6′-(hydroxymethyl)-2-methyl-3′,4′,5′,6′-tetrahydrospiro[chroman-4,2′-pyran]-3′,4′,5′-triol], the IC50 was more than 100 µM at human SGLT1 (setting [1]) and less than 1 µM at human SGLT2 (setting [1]).
For the compound `CCc1ccc(Cc2ccc3c(c2)[C@]2(CCO3)O[C@H](CO)[C@@H](O)[C@H](O)[C@H]2O)cc1` [Compound 12, (2′S,3′R,4′S,5′S,6′R)-6-(4-ethylbenzyl)-6′-(hydroxymethyl)-3′,4′,5′,6′-tetrahydrospiro[chroman-4,2′-pyran]-3′,4′,5′-triol], the IC50 is more than 100 µM on human SGLT1 (setting [2]) and less than 1 µM on human SGLT2 (setting [2]).
For `CCc1ccc(Cc2cc3c(cc2Cl)OCC[C@]32O[C@H](CO)[C@@H](O)[C@H](O)[C@H]2O)cc1` [Compound 20, (2′S,3′R,4′S,5′S,6′R)-7-chloro-6-(4-ethylbenzyl)-6′-(hydroxymethyl)-3′,4′,5′,6′-tetrahydrospiro[chroman-4,2′-pyran]-3′,4′,5′-triol] the same measures were 10 to 100 µM and less than 1 µM.
In the case of `CCc1ccc(Cc2cc3c(cc2Cl)OC(C)(C)C[C@]32O[C@H](CO)[C@@H](O)[C@H](O)[C@H]2O)cc1` [Compound 57, (2′S,3′R,4′S,5′S,6′R)-7-chloro-6-(4-ethylbenzyl)-6′-(hydroxymethyl)-2,2-dimethyl-3′,4′,5′,6′-tetrahydrospiro[chroman-4,2′-pyran]-3′,4′,5′-triol], the IC50 was more than 100 µM on human SGLT1 (setting [1]) and less than 1 µM on human SGLT2 (setting [1]).
Taken in the same sequence, the figures for `CCc1ccc(Cc2cc3c(cc2Cl)OC(C)(CO)C[C@]32O[C@H](CO)[C@@H](O)[C@H](O)[C@H]2O)cc1` (stereo partly drawn) [Compound 52, (2′S,3′R,4′S,5′S,6′R)-7-chloro-6-(4-ethylbenzyl)-2,6′-bis(hydroxymethyl)-2-methyl-3′,4′,5′,6′-tetrahydrospiro[chroman-4,2′-pyran]-3′,4′,5′-triol] were more than 100 µM and less than 1 µM.
In the case of `CCc1ccc(Cc2cc3c(cc2Cl)OC(OC)C[C@]32O[C@H](CO)[C@@H](O)[C@H](O)[C@H]2O)cc1` (stereo partly drawn) [Compound 43, (2′S,3′R,4′S,5′S,6′R)-7-chloro-6-(4-ethylbenzyl)-6′-(hydroxymethyl)-2-methoxy-3′,4′,5′,6′-tetrahydrospiro[chroman-4,2′-pyran]-3′,4′,5′-triol], the IC50 on human SGLT1 (setting [2]) is more than 100 µM; at human SGLT2 (setting [2]), less than 1 µM.
Taken in the same sequence, the figures for `CCc1ccc(Cc2cc3c(cc2Cl)OC(O)C[C@]32O[C@H](CO)[C@@H](O)[C@H](O)[C@H]2O)cc1` (stereo partly drawn) [Compound 44, (2′S,3′R,4′S,5′S,6′R)-7-chloro-6-(4-ethylbenzyl)-6′-(hydroxymethyl)-3′,4′,5′,6′-tetrahydrospiro[chroman-4,2′-pyran]-2,3′,4′,5′-tetraol] were more than 100 µM and less than 1 µM.
In the case of `CCc1ccc(Cc2cc3c(cc2Cl)OCCC[C@]32O[C@H](CO)[C@@H](O)[C@H](O)[C@H]2O)cc1` [Compound 38, (2′S,3′R,4′S,5′S,6′R)-8-chloro-7-(4-ethylbenzyl)-6′-(hydroxymethyl)-3,3′,4,4′,5′,6′-hexahydro-2H-spiro[benzo[b]oxepine-5,2′-pyran]-3′,4′,5′-triol], the values for the IC50 at human SGLT1 (setting [1]) and on human SGLT2 (setting [1]) were 10 to 100 µM and less than 1 µM, respectively.
Take `CCc1ccc(Cc2cc3c(cc2Cl)OC[C@]32O[C@H](CO)[C@@H](O)[C@H](O)[C@H]2O)cc1` [Compound 30, (2′R,3′R,4′S,5′S,6′R)-6-chloro-5-(4-ethylbenzyl)-6′-(hydroxymethyl)-3′,4′,5′,6′-tetrahydro-2H-spiro[benzofuran-3,2′-pyran]-3′,4′,5′-triol]: the IC50 is 10 to 100 µM at human SGLT1 (setting [1]) and less than 1 µM at human SGLT2 (setting [1]).
